Assay results reported in article PMC7703437, “In Vitro Hepatic Metabolism of Curcumin Diethyl Disuccinate by Liver S9 from Different Animal Species” (Frontiers in Pharmacology, 2020).
Where “and” joins values, the source holds several entries; their conditions need not be identical. Identical values can stand only once.

Experiments:
[1] = In vitro metabolism profiling of CDD in monkey liver S9 (1 mg/ml); type: in vitro ADME, monkey (cynomolgus); conditions: liver S9; monkey LS9 1 mg/ml; read-out: t 1/2 (CDD)
Description: (§1) The metabolism profiles of CDD were investigated against HLS9, MLS9, DLS9, and RLS9. A stock solution of CDD was prepared at 150 µM in 50% acetonitrile in water before use. The metabolism study was initiated by spiking 735 µl of preincubated LS9 with 15 µl of CDD stock solution, and the mixture was subsequently incubated at 37°C. The final concentrations of CDD and LS9 were 3 μM and 1 mg/ml, respectively. A 50-µl aliquot from the mixture was collected at 0.5, 1, 2, 3, 4, 5, 10, 15, 30, 45, 60, 90, and 120 min and immediately mixed with 100 µl of ice-cold acetonitrile containing 0.45 µM of internal standard DMC to terminate the metabolic reaction. […] The sample at the initial time point (0 min) was prepared as the other samples, except that heat-inactivated HLS9, MLS9, DLS9, and RLS9 (80°C for 20 min; 1 mg/ml protein) were used.
(§2) The UHPLC system consisted of an Agilent series 1290 quaternary pump with an online degasser, autosampler, column oven, and diode array detector. The mobile phase was composed of (A) 0.1% (v/v) formic acid in acetonitrile and (B) 0.1% (v/v) formic acid in water. Each solution was filtered through a nylon filter (pore size, 0.22 µm; MS® Membrane Filters; Membrane Solutions, United States) before use. The mobile phase flow rate was kept at 1.2 ml/min in a gradient mode using the following elution program: 0–3.0 min, initial A-B (40:60, v/v); 4.5–7.0 min, isocratic elution A-B [50:50, (v/v); 8.5–11.0 min, isocratic elution A-B (60:40, v/v); and 12.0–17.0 min, isocratic elution A-B (40:60, v/v)]. CDD, curcumin, and MSCUR in the supernatant were partitioned using a C8 column (4.6 mm × 50 mm, 2.7 µm; HALO, Advanced Materials Technology, United States) with reference to DMC. The detection wavelength was set at 400 nm (λ max(CDD) = 400 nm, λ max(curcumin) = 427 nm, λ max(MSCUR) = 418 nm, and λ max(DMC) = 421 nm). The column was maintained at 35°C throughout the run, and the supernatant injection volume was set at 20 µl.
(§3) The concentrations of CDD, curcumin, and MSCUR in the supernatant were determined from the standard plots, which were prepared by spiking individual working solutions of the compounds to heat-inactivated HLS9, MLS9, DLS9, and RLS9 ([Alcorn et al., 2007]; [Montoro-Garcia et al., 2009]; [Singh et al., 2010]). These working standards were extracted with 100 µl of ice-cold acetonitrile containing 0.45 µM of DMC and then 120 μl of the supernatant was diluted with 40 μl of water prior to the UHPLC analysis. The peak area ratios of CDD, curcumin, and MSCUR to the internal standard were computed against linear concentration ranges of 0.025–4.5 µM CDD, 0.025–4.5 µM curcumin, and 0.0125–0.75 µM MSCUR, respectively, with the coefficient of determination (r^2) values greater than 0.99.
(§4) The percent content of CDD and the metabolites formed upon its incubation with LS9, namely, curcumin and MSCUR, was plotted against incubation time.
(§5) The following equations were adopted to describe the changes in CDD and MSCUR content over time (t): A = A0e^−k1t (2) B= k1A0/k2−k1(e^−k1t−e^−k2t), (3) where A0 is the CDD concentration at time 0, k 1 is the degradation rate constant of CDD, and k 2 is the degradation rate constant of MSCUR. k 1 and k 2 were determined by using Eqs. 2 and 3, respectively, with nonlinear regression analysis using the SOLVER function of Microsoft Excel for Office 365 MSO (16.0.12527.20986) ([Brown, 2001]). The half-life (t 1/2) was calculated using Eq. 4: t1/2=0.693/k (4)
(§6) The in vitro intrinsic clearance (CLint,in vitro) of CDD and MSCUR in LS9 was calculated using Eq. 5: CLint, in vitro= k × [V]incubation(ml)/[P]incubation(mg protein), (5) where [V]incubation is the incubation volume in ml, and [P]incubation is the amount of LS9. […]

[2] = tested on: monkey LS9 (MLS9; cynomolgus); assay: as above; type: in vitro ADME
Description: as §1, §2, §3, §4, §5, §6

[3] = In vitro metabolism profiling of CDD, statements for LS9 from all tested species; type: in vitro ADME, human, monkey, dog, rat; conditions: beagle (dog); Sprague-Dawley (rat), human, monkey, dog, rat, liver S9 (LS9); all LS9s; read-out: t 1/2 of CDD
Description: as §1, §2
(§7) The concentrations of CDD, curcumin, and MSCUR in the supernatant were determined from the standard plots, which were prepared by spiking individual working solutions of the compounds to heat-inactivated HLS9, MLS9, DLS9, and RLS9 ([Alcorn et al., 2007]; [Montoro-Garcia et al., 2009]; [Singh et al., 2010]). […]
(§8) The following equations were adopted to describe the changes in CDD and MSCUR content over time (t): A = A0e^−k1t (2) B= k1A0/k2−k1(e^−k1t−e^−k2t), (3) where A0 is the CDD concentration at time 0, k 1 is the degradation rate constant of CDD, and k 2 is the degradation rate constant of MSCUR. k 1 and k 2 were determined by using Eqs. […] The half-life (t 1/2) was calculated using Eq. 4: t1/2=0.693/k (4)

[4] = tested on: LS9 from all tested species (HLS9, MLS9, DLS9, RLS9); assay: as above; type: in vitro ADME, human, monkey, dog, rat; conditions: within the first 15 min of incubation, LS9 1 mg/ml from all tested species, CDD 3 µM
Description: as §1, §2, §7, §8

[5] = tested on: RLS9; assay: CDD depletion in RLS9 0.02 mg/ml (optimisation of incubation condition); type: in vitro ADME, rat; conditions: CDD 3 μM
Description: The metabolism profiles of CDD and curcumin formation profile were investigated against HLS9, MLS9, DLS9 and RLS9. A stock solution of CDD was prepared at 150 µM in 50% acetonitrile in water before use. The metabolism study was initiated by spiking a 588 µl pre-incubated LS9 with 12 µl CDD stock solution, and subsequently incubated at 37°C. The final concentrations of CDD and LS9 were 3 µM and 0.02 mg/ml, respectively. A 50 µl aliquot from the mixture was collected at 0.5, 1, 2, 3, 4, 5, 10, 15, 30, 45 and 60 min and was immediately mixed with 100 µl of ice-cold acetonitrile containing 0.45 µM of internal standard DMC to terminate the metabolic reaction. […] Samples of 120 µl of supernatant wee diluted with 40 µl of water prior to UHPLC analysis (Agilent series 1290, Agilent Technology, USA) by means of protocol outlined in Materials and Methods:“In vitro Metabolism Profiling of Curcumin Diethyl Disuccinate”. The sample at 0 min was prepared as other samples except that heat-inactivated HLS9, MLS9, DLS9 and RLS9 (80°C for 20 min; 1 mg/ml protein) were used. Duplicates were conducted for each experiment.
The peak area ratios of CDD and curcumin to internal standard in the supernatant were determined. The percent contents of CDD and curcumin were plotted against incubation time. The depletion of CDD was calculated with reference to the initial concentration. The saturated substrate was defined as % depletion less than 30.

SMILES: CCOC(=O)CCC(=O)Oc1ccc(/C=C/C(=O)/C=C(O)/C=C/c2ccc(OC(=O)CCC(=O)OCC)c(OC)c2)cc1OC [CDD, curcumin diethyl disuccinate]
- half-life at 3 µM [1]: 52.2 ± 7.8 s
- CLint, in vitro(CDD) ([2]; monkey LS9): 0.81 ± 0.13 ml min^−1 mg protein^−1
- k 1 (CDD) ([2]; monkey LS9 1 mg/ml, CDD 3 µM, 37°C): 0.81 ± 0.13 min⁻¹
- CLint, in vivo(CDD) ([2]; monkey, scaled from CLint,in vitro with physiologically based scaling factors): 2949.3 ± 458.2 mL/min/kg
- CLint, in vivo total ([2]; monkey, sum of CLint,in vivo(CDD) and CLint,in vivo(MSCUR)): 4,704.26 ± 695.64 L h^−1 kg^−1
- CLH (predicted hepatic clearance) ([2]; monkey, well-stirred model, QH 44 ml min^−1 kg^−1, fup 0.0594): 2.61 ± 3.87 × 10^–3 L h^−1 kg^−1
- half-life at 3 µM [3]: < 62.4 s
- CDD hydrolyzed [4]: more than 95%
- % CDD remaining ([5]; 0.5 min): 82.81%
- %Depletion of CDD ([5]; 0.5 min): 17.19%
- % CDD remaining ([5]; 1 min): 78.14%
- %Depletion of CDD ([5]; 1 min (selected incubation time)): 22% and 21.86%
- % CDD remaining ([5]; 2 min): 62.71%
- %Depletion of CDD ([5]; 2 min): 37.29%
- % CDD remaining ([5]; 3 min): 56.54%
- %Depletion of CDD ([5]; 3 min): 43.46%
- % CDD remaining ([5]; 4 min): 46.44%
- %Depletion of CDD ([5]; 4 min): 53.56%
- % CDD remaining ([5]; 5 min): 40.58%
- %Depletion of CDD ([5]; 5 min): 59.42%
